Reference: patent publication US7462617B2, “Substituted acylpiperazine derivatives” (Hoffmann-La Roche Inc., priority 2003, dated 2008)

Target: T1, mGlyT-1b (Mus musculus, UniProt P28571)
T1 construct: host or cells: Flp-in-CHO
T1 sequence (P28571 1-651 isoform P28571-2): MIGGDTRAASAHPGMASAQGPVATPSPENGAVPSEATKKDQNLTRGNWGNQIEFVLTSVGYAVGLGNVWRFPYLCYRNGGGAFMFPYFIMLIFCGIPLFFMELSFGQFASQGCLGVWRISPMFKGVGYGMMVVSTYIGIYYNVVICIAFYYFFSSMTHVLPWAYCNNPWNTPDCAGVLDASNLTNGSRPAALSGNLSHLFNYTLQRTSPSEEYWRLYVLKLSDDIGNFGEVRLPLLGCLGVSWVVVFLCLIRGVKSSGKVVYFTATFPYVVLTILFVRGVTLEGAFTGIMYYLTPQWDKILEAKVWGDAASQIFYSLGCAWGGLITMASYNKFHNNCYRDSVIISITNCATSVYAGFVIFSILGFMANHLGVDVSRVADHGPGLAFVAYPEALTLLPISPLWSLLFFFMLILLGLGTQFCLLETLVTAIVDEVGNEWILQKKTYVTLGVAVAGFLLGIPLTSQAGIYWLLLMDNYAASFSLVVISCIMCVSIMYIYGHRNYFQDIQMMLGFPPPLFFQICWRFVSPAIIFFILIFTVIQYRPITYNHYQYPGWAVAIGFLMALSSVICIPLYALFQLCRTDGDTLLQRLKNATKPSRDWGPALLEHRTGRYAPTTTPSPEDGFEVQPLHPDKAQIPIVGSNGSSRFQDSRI
Experiment: Glycine Uptake Inhibition Assay (mGlyT-1b)
Assay type: cell-based
Conditions: [3H]-glycine uptake in Flp-in-CHO cells stably transfected with mGlyT1b cDNA; 20 min preincubation at 22° C.; read-out: IC50 (μM) at GlyT-1
Procedure: DMEM complete medium: Nutrient mixture F-12 (Gibco Life-technologies), fetal bovine serum (FBS) 5%, (Gibco life technologies), Penicillin/Streptomycin 1% (Gibco life technologies), Hygromycin 0.6 mg/ml (Gibco life technologies), Glutamine 1 mM Gibco life technologies)
Uptake buffer (UB): 150 mM NaCl, 10 mM Hepes-Tris, pH 7.4, 1 mM CaCl2, 2.5 mM KCl, 2.5 mM MgSO4, 10 mM (+) D-glucose. Flp-in™-CHO (Invitrogen Cat n^o R758-07)cells stably transfected with mGlyT1b cDNA.
Glycine Uptake Inhibition Assay (mGlyT-1b)
On day 1 mammalian cells, (Flp-in™-CHO), transfected with mGlyT-1b cDNA, were plated at the density of 40,000 cells/well in complete F-12 medium, without hygromycin in 96-well culture plates. On day 2 ,the medium was aspirated, and the cells were washed twice with uptake buffer (UB). The cells were then incubated for 20 min at 22° C. with either (i) no potential competitor, (ii) 10 mM non-radioactive glycine, (iii) a concentration of a potential inhibitor. A range of concentrations of the potential inhibitor was used to generate data for calculating the concentration of inhibitor resulting in 50% of the effect (e.g. IC50, the concentration of the competitor inhibiting glycine uptake of 50%). A solution was then immediately added containing [^3H]-glycine 60 nM (11-16 Ci/mmol) and 25 μM non-radioactive glycine. The plates were incubated with gentle shaking, and the reaction was stopped by aspiration of the mixture and washing (three times) with ice-cold UB. The cells were lysed with scintillation liquid, shaken 3 hours, and the radioactivity in the cells was counted using a scintillation counter.

SMILES | IC50 [µM]
CC(=O)c1ccc(N2CCN(C(=O)c3cc([N+](=O)[O-])ccc3-c3ccccc3)CC2)c(F)c1 [Example 15, 1-{3-Fluoro-4-[4-(4-nitro-biphenyl-2-carbonyl)-piperazin-1-yl]-phenyl}-ethanone] | 0.023
CC(=O)c1ccc(N2CCN(C(=O)c3cc([N+](=O)[O-])ccc3C3CC3)CC2)c(F)c1 [Example 16, 1-{4-[4-(2-Cyclopropyl-5-nitro-benzoyl)-piperazin-1-yl]-3-fluoro-phenyl}-ethanone] | 0.026
COC(=O)c1ccc([N+](=O)[O-])cc1C(=O)N1CCN(c2ccc(C(C)=O)cc2F)CC1 [Example 43, 2-[4-(4-Acetyl-2-fluoro-phenyl)-piperazine-1-carbonyl]-4-nitro-benzoic acid methyl ester] | 0.032
CS(=O)(=O)c1ccc(-c2cccs2)c(C(=O)N2CCN(c3ccc(C(F)(F)F)cc3)CC2)c1 [Example 52, (5-Methanesulfonyl-2-thiophen-2-yl-phenyl)-[4-(4-trifluoromethyl-phenyl)-piperazin-1-yl]-methanone] | 0.033
CS(=O)(=O)c1ccc(-c2ccsc2)c(C(=O)N2CCN(c3ccc(C(F)(F)F)cc3)CC2)c1 [Example 53, (5-Methanesulfonyl-2-thiophen-3-yl-phenyl)-[4-(4-trifluoromethyl-phenyl)-piperazin-1-yl]-methanone] | 0.006
Cc1ccc(-c2ccc(S(C)(=O)=O)cc2C(=O)N2CCN(c3ccc(C(F)(F)F)cc3)CC2)s1 [Example 55, [5-Methanesulfonyl-2-(5-methyl-thiophen-2-yl)-phenyl]-[4-(4-trifluoromethyl-phenyl)-piperazin-1-yl]-methanone] | 0.039
CS(=O)(=O)c1ccc(-c2ccncc2)c(C(=O)N2CCN(c3ccc(C(F)(F)F)cc3)CC2)c1 [Example 59, (5-Methanesulfonyl-2-pyridin-4-yl-phenyl)-[4-(4-trifluoromethyl-phenyl)-piperazin-1-yl]-methanone] | 0.033
CS(=O)(=O)c1ccc(C2=CCOCC2)c(C(=O)N2CCN(c3ccc(C(F)(F)F)cc3)CC2)c1 [Example 60, [2-(3,6-Dihydro-2H-pyran-4-yl)-5-methanesulfonyl-phenyl]-[4-(4-trifluoromethyl-phenyl)-piperazin-1-yl]-methanone] | 0.019
CS(=O)(=O)c1ccc(-c2ccccc2)c(C(=O)N2CCN(c3ccc(C(F)(F)F)cc3F)CC2)c1 [Example 62, [4-(2-Fluoro-4-trifluoromethyl-phenyl)-piperazin-1-yl]-(4-methanesulfonyl-biphenyl-2-yl)-methanone] | 0.019
CS(=O)(=O)c1ccc(-c2ccc(F)cc2)c(C(=O)N2CCN(c3ccc(C(F)(F)F)cc3F)CC2)c1 [Example 63, (4′-Fluoro-4-methanesulfonyl-biphenyl-2-yl)-[4-(2-fluoro-4-trifluoromethyl-phenyl)-piperazin-1-yl]-methanone] | 0.01
CC(=O)c1ccc(N2CCN(C(=O)c3cc(S(C)(=O)=O)ccc3C3=CCCCC3)CC2)c(F)c1 [Example 68, 1-{4-[4-(2-Cyclohex-1-enyl-5-methanesulfonyl-benzoyl)-piperazin-1-yl]-3-fluoro-phenyl}-ethanone] | 0.007
CCc1ccc(N2CCN(C(=O)c3cc(S(C)(=O)=O)ccc3C3CCCCC3)CC2)c(F)c1 [Example 69, (2-Cyclohexyl-5-methanesulfonyl-phenyl)-[4-(4-ethyl-2-fluoro-phenyl)-piperazin-1-yl]-methanone] | 0.031
CC(=O)c1ccc(N2CCN(C(=O)c3cc(S(C)(=O)=O)ccc3C3=CCCC3)CC2)c(F)c1 [Example 71, 1-{4-[4-(2-Cyclopent-1-enyl-5-methanesulfonyl-benzoyl)-piperazin-1-yl]-3-fluoro-phenyl}-ethanone] | 0.013
CC(=O)c1ccc(N2CCN(C(=O)c3cc(S(C)(=O)=O)ccc3C3=CCOCC3)CC2)c(F)c1 [Example 72, 1-(4-{4-[2-(3,6-Dihydro-2H-pyran-4-yl)-5-methanesulfonyl-benzoyl]-piperazin-1-yl}-3-fluoro-phenyl)-ethanone] | 0.021
CC(=O)c1ccc(N2CCN(C(=O)c3cc(S(C)(=O)=O)ccc3C3=CCCCCC3)CC2)c(F)c1 [Example 73, 1-{4-[4-(2-Cyclohept-1-enyl-5-methanesulfonyl-benzoyl)-piperazin-1-yl]-3-fluoro-phenyl}-ethanone] | 0.013
CS(=O)(=O)c1ccc(C2=CCCCCC2)c(C(=O)N2CCN(c3ccc(C(F)(F)F)cc3)CC2)c1 [Example 75, (2-Cyclohept-1-enyl-5-methanesulfonyl-phenyl)-[4-(4-trifluoromethyl-phenyl)-piperazin-1-yl]-methanone] | 0.014
CNS(=O)(=O)c1ccc(-c2ccccc2)c(C(=O)N2CCN(c3ccc(C(F)(F)F)cc3)CC2)c1 [Example 76, 2-[4-(4-Trifluoromethyl-phenyl)-piperazine-1-carbonyl]-biphenyl-4-sulfonic acid methylamide] | 0.012
CS(=O)(=O)c1ccc(C2=CCCCC2)c(C(=O)N2CCN(c3ccc(C(F)(F)F)cc3)CC2)c1 [Example 77, (2-Cyclohex-1-enyl-5-methanesulfonyl-phenyl)-[4-(4-trifluoromethyl-phenyl)-piperazin-1-yl]-methanone] | 0.011
CS(=O)(=O)c1ccc(C2CCCC2)c(C(=O)N2CCN(c3ccc(C(F)(F)F)cc3)CC2)c1 [Example 79, (2-Cyclopentyl-5-methanesulfonyl-phenyl)-[4-(4-trifluoromethyl-phenyl)-piperazin-1-yl]-methanone] | 0.008
CS(=O)(=O)c1ccc(C2=CCOCC2)c(C(=O)N2CCN(c3ccc(C(F)(F)F)cc3F)CC2)c1 [Example 91, [2-(3,6-Dihydro-2H-pyran-4-yl)-5-methanesulfonyl-phenyl]-[4-(2-fluoro-4-trifluoromethyl-phenyl)-piperazin-1-yl]-methanone] | 0.022
CS(=O)(=O)c1ccc(-c2ccccc2F)c(C(=O)N2CCN(c3ncc(C(F)(F)F)cc3Cl)CC2)c1 [Example 111, [4-(3-Chloro-5-trifluoromethyl-pyridin-2-yl)-piperazin-1-yl]-(2′-fluoro-4-methanesulfonyl-biphenyl-2-yl)-methanone] | 0.038
CS(=O)(=O)c1ccc(-c2ccccc2)c(C(=O)N2CCN(c3ncc(C(F)(F)F)cc3Cl)CC2)c1 [Example 114, [4-(3-Chloro-5-trifluoromethyl-pyridin-2-yl)-piperazin-1-yl]-(4-methanesulfonyl-biphenyl-2-yl)-methanone] | 0.035
CS(=O)(=O)c1ccc(-c2ccccc2F)c(C(=O)N2CCN(c3ccc(C#N)cc3F)CC2)c1 [Example 126, 3-Fluoro-4-[4-(2′-fluoro-4-methane-sulfonyl-biphenyl-2-carbonyl)-piperazin-1-yl]-benzonitrile] | 0.039
CC(=O)c1ccc(N2CCN(C(=O)c3cc(S(C)(=O)=O)ccc3-c3ccsc3)CC2)cc1 [Example 127, 1-{4-[4-(5-Methanesulfonyl-2-thiophen-3-yl-benzoyl)-piperazin-1-yl]-phenyl}-ethanone] | 0.036

Tested on: not given
Experiment: not given
Conditions: not given

SMILES | melting point [°C]
CC(=O)c1ccc(N2CCN(C(=O)c3c(Cl)ccc([N+](=O)[O-])c3Cl)CC2)c(F)c1 [Example 12, 1-{4-[4-(2,6-Dichloro-3-nitro-benzoyl)-piperazin-1-yl]-3-fluoro-phenyl}-ethanone] | 209 to 211
COC(=O)c1ccc([N+](=O)[O-])cc1C(=O)N1CCN(c2ccc(C(C)=O)cc2F)CC1 [Example 43, 2-[4-(4-Acetyl-2-fluoro-phenyl)-piperazine-1-carbonyl]-4-nitro-benzoic acid methyl ester] | 189 to 191
